Our source for the PI3K inhibition and JAK2/JAK1 values is patent publication US11084822B2, “Salts and processes of preparing a PI3K inhibitor” (Incyte Corporation, priority 2015, dated 2021).

Structures are written as SMILES.

The first assay has as its system PI3K. Put plainly: PI3K inhibition according to at least one assay described herein.
Conditions: not given
It is filed as biochemical.
Turning to `CCOc1c([C@H](C)n2nc(C)c3c(N)ncnc32)cc(Cl)c(F)c1[C@@H]1CNC(=O)C1` [compound of Formula I, (R)-4-(3-((S)-1-(4-amino-3-methyl-1H-pyrazolo[3,4-d]pyrimidin-1-yl)ethyl)-5-chloro-2-ethoxy-6-fluorophenyl)pyrrolidin-2-one], the PI3K inhibition result is reported as “found to be PI3K inhibitors”.

In another assay the target is JAK2 (Homo sapiens (Human), UniProt O60674). The assay is described as follows: JAK2 versus JAK1 (Assay A at 1 mM ATP). As to conditions: ratio JAK2/JAK1, Assay A at 1 mM ATP. It is filed as biochemical.
Sequence of JAK2 (O60674 whole entry, species assumed): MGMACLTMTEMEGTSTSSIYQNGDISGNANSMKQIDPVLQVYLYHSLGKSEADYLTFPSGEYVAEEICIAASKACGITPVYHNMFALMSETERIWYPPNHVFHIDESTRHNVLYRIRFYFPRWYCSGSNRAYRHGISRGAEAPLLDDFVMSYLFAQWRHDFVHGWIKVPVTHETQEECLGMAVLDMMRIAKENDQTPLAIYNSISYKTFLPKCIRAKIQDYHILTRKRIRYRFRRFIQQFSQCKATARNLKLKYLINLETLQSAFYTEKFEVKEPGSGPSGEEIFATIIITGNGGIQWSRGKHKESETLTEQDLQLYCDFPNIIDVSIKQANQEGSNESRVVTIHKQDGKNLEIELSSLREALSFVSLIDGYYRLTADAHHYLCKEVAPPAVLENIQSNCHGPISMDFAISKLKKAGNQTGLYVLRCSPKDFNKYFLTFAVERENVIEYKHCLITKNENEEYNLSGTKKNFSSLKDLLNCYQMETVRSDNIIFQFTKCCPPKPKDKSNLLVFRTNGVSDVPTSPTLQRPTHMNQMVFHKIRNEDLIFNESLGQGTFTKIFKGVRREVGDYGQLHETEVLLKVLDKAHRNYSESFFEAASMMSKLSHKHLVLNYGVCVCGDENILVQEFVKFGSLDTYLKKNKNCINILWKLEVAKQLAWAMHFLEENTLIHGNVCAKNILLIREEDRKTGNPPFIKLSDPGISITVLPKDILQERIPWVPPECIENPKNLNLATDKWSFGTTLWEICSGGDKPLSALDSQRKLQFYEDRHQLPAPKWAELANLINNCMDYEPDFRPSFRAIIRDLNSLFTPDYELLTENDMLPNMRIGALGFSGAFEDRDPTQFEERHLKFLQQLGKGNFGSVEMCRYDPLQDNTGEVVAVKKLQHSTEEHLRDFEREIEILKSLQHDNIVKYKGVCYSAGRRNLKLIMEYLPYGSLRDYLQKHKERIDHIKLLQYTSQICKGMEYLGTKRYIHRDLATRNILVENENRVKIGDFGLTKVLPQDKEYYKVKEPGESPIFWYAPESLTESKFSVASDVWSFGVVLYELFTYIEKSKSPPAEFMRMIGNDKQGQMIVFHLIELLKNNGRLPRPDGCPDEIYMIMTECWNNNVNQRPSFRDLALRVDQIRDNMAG
For the compound `C[C@H](NC(=O)c1cc(F)c(N2CC(CC#N)(n3cc(-c4ncnc5[nH]ccc45)cn3)C2)cc1F)C(F)(F)F` [Compound 16, 4-{3-(cyanomethyl)-3-[4-(7H-pyrrolo[2,3-d]pyrimidin-4-yl)-1H-pyrazol-1-yl]azetidin-1-yl}-2,5-difluoro-N-[(1S)-2,2,2-trifluoro-1-methylethyl]benzamide], the JAK2/JAK1 is recorded as greater than 10.

`N#CCC1(n2cc(-c3ncnc4[nH]ccc34)cn2)CN(C2CCN(C(=O)c3ccnc(C(F)(F)F)n3)CC2)C1` [Compound 9, [3-[4-(7H-pyrrolo[2,3-d]pyrimidin-4-yl)-1H-pyrazol-1-yl]-1-(1-{[2-(trifluoromethyl)pyrimidin-4-yl]carbonyl}piperidin-4-yl)azetidin-3-yl]acetonitrile]: the JAK2/JAK1 is greater than 10.

On to `N#CCC1(n2cc(-c3ncnc4[nH]ccc34)cn2)CN(C2CCN(C(=O)c3ccnc(C(F)(F)F)c3F)CC2)C1` [Compound 7, {1-{1-[3-Fluoro-2-(trifluoromethyl)isonicotinoyl]piperidin-4-yl}-3-[4-(7H-pyrrolo[2,3-d]pyrimidin-4-yl)-1H-pyrazol-1-yl]azetidin-3-yl}acetonitrile], for which the JAK2/JAK1 is on record as greater than 10.

On to `CCNCc1cc(O[C@H]2CC[C@@H](N3CC(CC#N)(n4cc(-c5ncnc6[nH]ccc56)cn4)C3)CC2)nc(C(F)(F)F)c1` [Compound 19, {1-(cis-4-{[4-[(ethylamino)methyl]-6-(trifluoromethyl)pyridin-2-yl]oxy}cyclohexyl)-3-[4-(7H-pyrrolo[2,3-d]pyrimidin-4-yl)-1H-pyrazol-1-yl]azetidin-3-yl}acetonitrile], for which the JAK2/JAK1 is greater than 10.

For the compound `N#CCC(CN1CCN(C(=O)c2ccc(C#N)cc2F)CC1)n1cc(-c2ncnc3[nH]ccc23)cn1` (stereo not shown) [Compound 5, 4-[(4-{3-cyano-2-[4-(7H-pyrrolo[2,3-d]pyrimidin-4-yl)-1H-pyrazol-1-yl]propyl}piperazin-1-yl)carbonyl]-3-fluorobenzonitrile], the JAK2/JAK1 is listed as greater than 10.

On to `N#CC[C@]1(n2cc(-c3ncnc4[nH]ccc34)cn2)C[C@H](N2CCN(C(=O)c3ccnc(C(F)(F)F)n3)CC2)C1` [Compound 10, [trans-1-[4-(7H-pyrrolo[2,3-d]pyrimidin-4-yl)-1H-pyrazol-1-yl]-3-(4-{[2-(trifluoromethyl)pyrimidin-4-yl]carbonyl}piperazin-1-yl)cyclobutyl]acetonitrile], for which the JAK2/JAK1 is on record as greater than 10.

In the case of `N#CC[C@]1(n2cc(-c3ncnc4[nH]ccc34)cn2)C[C@H](N2CCC(Oc3cc(CCO)cc(C(F)(F)F)n3)CC2)C1` [Compound 26, {trans-3-(4-{[4-(2-hydroxyethyl)-6-(trifluoromethyl)pyridin-2-yl]oxy}piperidin-1-yl)-1-[4-(7H-pyrrolo[2,3-d]pyrimidin-4-yl)-1H-pyrazol-1-yl]cyclobutyl}acetonitrile], the JAK2/JAK1 was greater than 10.

Regarding `N#CCC1(n2cc(-c3ncnc4[nH]ccc34)cn2)CN(C2CCN(C(=O)Nc3ccc(F)cc3C(F)(F)F)CC2)C1` [Compound 8], the JAK2/JAK1 was greater than 10.

As for `N#CC[C@]1(n2cc(-c3ncnc4[nH]ccc34)cn2)C[C@H](N2CCC(Oc3cc(CN4CCC[C@H]4CO)cc(C(F)(F)F)n3)CC2)C1` [Compound 12, {trans-3-(4-{[4-{[(2S)-2-(hydroxymethyl)pyrrolidin-1-yl]methyl}-6-(trifluoromethyl)pyridin-2-yl]oxy}piperidin-1-yl)-1-[4-(7H-pyrrolo[2,3-d]pyrimidin-4-yl)-1H-pyrazol-1-yl]cyclobutyl}acetonitrile], the JAK2/JAK1 is on record as greater than 10.

In the case of `N#CCC1(n2cc(-c3ncnc4[nH]ccc34)cn2)CN([C@H]2CC[C@@H](Oc3cc(CN4CC[C@@H](O)C4)cc(C(F)(F)F)n3)CC2)C1` [Compound 21, {1-(cis-4-{[4-{[(3R)-3-hydroxypyrrolidin-1-yl]methyl}-6-(trifluoromethyl)pyridin-2-yl]oxy}cyclohexyl)-3-[4-(7H-pyrrolo[2,3-d]pyrimidin-4-yl)-1H-pyrazol-1-yl]azetidin-3-yl}acetonitrile], the JAK2/JAK1 is given as greater than 10.

For the compound `N#CCC1(n2cc(-c3ncnc4[nH]ccc34)cn2)CN([C@H]2CC[C@@H](Oc3cc(CN4CC[C@H](O)C4)cc(C(F)(F)F)n3)CC2)C1` [Compound 22, {1-(cis-4-{[4-{[(3S)-3-hydroxypyrrolidin-1-yl]methyl}-6-(trifluoromethyl)pyridin-2-yl]oxy}cyclohexyl)-3-[4-(7H-pyrrolo[2,3-d]pyrimidin-4-yl)-1H-pyrazol-1-yl]azetidin-3-yl}acetonitrile], the JAK2/JAK1 is recorded as greater than 10.

Take `C[C@H](O)CNCc1cc(OC2CCN([C@H]3C[C@](CC#N)(n4cc(-c5ncnc6[nH]ccc56)cn4)C3)CC2)nc(C(F)(F)F)c1` [Compound 25, {trans-3-(4-{[4-({[(2S)-2-hydroxypropyl]amino}methyl)-6-(trifluoromethyl)pyridin-2-yl]oxy}piperidin-1-yl)-1-[4-(7H-pyrrolo[2,3-d]pyrimidin-4-yl)-1H-pyrazol-1-yl]cyclobutyl}acetonitrile]: the JAK2/JAK1 is greater than 10.

As to `N#CCC1(n2cc(-c3ncnc4[nH]ccc34)cn2)CN([C@H]2CC[C@@H](Oc3cc(CCO)nc(C(F)(F)F)n3)CC2)C1` [Compound 18, {1-(cis-4-{[6-(2-hydroxyethyl)-2-(trifluoromethyl)pyrimidin-4-yl]oxy}cyclohexyl)-3-[4-(7H-pyrrolo[2,3-d]pyrimidin-4-yl)-1H-pyrazol-1-yl]azetidin-3-yl)acetonitrile], the JAK2/JAK1 was greater than 10.

For `N#CCC(C1CCN(c2cccc(Cl)n2)C1)n1cc(-c2ncnc3[nH]ccc23)cn1` (single isomer, unassigned) [Compound 3, 3-[1-(6-chloropyridin-2-yl)pyrrolidin-3-yl]-3-[4-(7H-pyrrolo[2,3-d]pyrimidin-4-yl)-1H-pyrazol-1-yl]propanenitrile], the JAK2/JAK1 is greater than 10.

With `N#CCC(CN1CCN(C(=O)c2ccc(C#N)cc2F)CC1)n1ccc(-c2ncnc3[nH]ccc23)c1` (stereo not shown) [Compound 6, 4-[(4-{3-cyano-2-[3-(7H-pyrrolo[2,3-d]pyrimidin-4-yl)-1H-pyrrol-1-yl]propyl}piperazin-1-yl)carbonyl]-3-fluorobenzonitrile], the JAK2/JAK1 is on record as greater than 10.

On to `CC(C)(O)c1cc(O[C@H]2CC[C@@H](N3CC(CC#N)(n4cc(-c5ncnc6[nH]ccc56)cn4)C3)CC2)nc(C(F)(F)F)c1` [Compound 20, {1-(cis-4-{[4-(1-hydroxy-1-methylethyl)-6-(trifluoromethyl)pyridin-2-yl]oxy}cyclohexyl)-3-[4-(7H-pyrrolo[2,3-d]pyrimidin-4-yl)-1H-pyrazol-1-yl]azetidin-3-yl}acetonitrile], for which the JAK2/JAK1 is on record as greater than 10.

Take `C[C@@H](O)CNCc1cc(OC2CCN([C@H]3C[C@](CC#N)(n4cc(-c5ncnc6[nH]ccc56)cn4)C3)CC2)nc(C(F)(F)F)c1` [Compound 24, {trans-3-(4-{[4-({[(2R)-2-hydroxypropyl]amino}methyl)-6-(trifluoromethyl)pyridin-2-yl]oxy}piperidin-1-yl)-1-[4-(7H-pyrrolo[2,3-d]pyrimidin-4-yl)-1H-pyrazol-1-yl]cyclobutyl}acetonitrile]: the JAK2/JAK1 is given as greater than 10.

For the compound `C[C@@H](CO)NCc1cc(OC2CCN([C@H]3C[C@](CC#N)(n4cc(-c5ncnc6[nH]ccc56)cn4)C3)CC2)nc(C(F)(F)F)c1` [Compound 23, {trans-3-(4-{[4-({[(1S)-2-hydroxy-1-methylethyl]amino}methyl)-6-(trifluoromethyl)pyridin-2-yl]oxy}piperidin-1-yl)-1-[4-(7H-pyrrolo[2,3-d]pyrimidin-4-yl)-1H-pyrazol-1-yl]cyclobutyl}acetonitrile], the JAK2/JAK1 is reported as greater than 10.

With `N#CC[C@]1(n2cc(-c3ncnc4[nH]ccc34)cn2)C[C@H](N2CCC(Oc3cc(CN4CC(O)C4)cc(C(F)(F)F)n3)CC2)C1` [Compound 11, {trans-3-(4-{[4-[(3-hydroxyazetidin-1-yl)methyl]-6-(trifluoromethyl)pyridin-2-yl]oxy}piperidin-1-yl)-1-[4-(7H-pyrrolo[2,3-d]pyrimidin-4-yl)-1H-pyrazol-1-yl]cyclobutyl}acetonitrile], the JAK2/JAK1 was greater than 10.

`N#CCC(C1CCN(c2nc3cccnc3o2)C1)n1cc(-c2ncnc3[nH]ccc23)cn1` (stereo not shown) [Compound 4, 3-(1-[1,3]oxazolo[5,4-b]pyridin-2-ylpyrrolidin-3-yl)-3-[4-(7H-pyrrolo[2,3-d]pyrimidin-4-yl)-1H-pyrazol-1-yl]propanenitrile]: the JAK2/JAK1 is given as greater than 10.

Regarding `N#CC[C@]1(n2cc(-c3ncnc4[nH]ccc34)cn2)C[C@H](N2CCC(Oc3cc(CN4CCC[C@@H]4CO)cc(C(F)(F)F)n3)CC2)C1` [Compound 13, {trans-3-(4-{[4-{[(2R)-2-(hydroxymethyl)pyrrolidin-1-yl]methyl}-6-(trifluoromethyl)pyridin-2-yl]oxy}piperidin-1-yl)-1-[4-(7H-pyrrolo[2,3-d]pyrimidin-4-yl)-1H-pyrazol-1-yl]cyclobutyl}acetonitrile], the JAK2/JAK1 is greater than 10.
